Laboratory results published in ChEMBL document CHEMBL1201862, “PubChem BioAssay data set” (2004).
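Five compound concentrations were applied to cells in 96-well plates for 48 hours; endpoints were derived by simple linear interpolation of the resulting dose-response curve. The concentration for 50% growth inhibition is given as GI50.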 Calls of active or inactive are those of the source. Rule as the data show it: active = GI50 up to about 1.1 µM and inactive = higher.

Columns and labels:
Assay in all cases: NCI anticancer screen, dose series, 48 h
[1] = system: EKVX
[2] = system: IGROV-1
[3] = system: NCI-H23
[4] = system: M19-MEL
[5] = system: Malme-3M
[6] = system: A549
[7] = system: HOP-18
[8] = system: MOLT-4
[9] = system: HOP-92
[10] = system: SK-MEL-28
[11] = system: U-251
[12] = system: HT-29
[13] = system: COLO 205
[14] = system: K562
[15] = system: SN12C
[16] = system: SNB-75
[17] = system: SF-268
[18] = system: CCRF-CEM
[19] = system: LXFL 529
[20] = system: UO-31
[21] = system: NCI-H226
[22] = system: NCI-H460
[23] = system: OVCAR-3
[24] = system: SK-OV-3
[25] = system: RXF 393
[26] = system: CAKI-1
[27] = system: SF-539
[28] = system: ACHN
[29] = system: SF-295
[30] = system: SNB-19
[31] = system: OVCAR-5
[32] = system: UACC-62
[33] = system: SW-620
[34] = system: SK-MEL-5
[35] = system: A498
[36] = system: NCI-H522
[37] = system: OVCAR-8
[38] = system: RPMI-8226
[39] = system: XF498
[40] = system: UACC-257
[41] = system: DMS-273
[42] = system: LOX IMVI
[43] = system: SK-MEL-2
[44] = system: OVCAR-4
[45] = system: TK-10
[46] = system: KM12
[47] = system: KM-20L2
[48] = system: 786-0
[49] = system: HL-60
[50] = system: HOP-62
[51] = system: HCT-15
[52] = system: DMS-114
[53] = system: M14
[54] = system: DLD-1
[55] = system: HCT-116
[56] = system: HCC 2998
[57] = system: SR
[58] = system: MCF7
[59] = system: SNB-78
[60] = system: NCI/ADR-RES

Compound: O=C1C2CN(Cc3ccccc3)CC1CN(CC1CC1)C2
- GI50 [1]: > 100 µM (inactive)
- GI50 [2]: > 100 µM (inactive)
- GI50 [3]: > 100 µM (inactive)
- GI50 [4]: > 100 µM (inactive)
- GI50 [5]: > 100 µM (inactive)
- GI50 [6]: > 100 µM (inactive)
- GI50 [7]: > 100 µM (inactive)
- GI50 [8]: > 100 µM (inactive)
- GI50 [9]: > 100 µM (inactive)
- GI50 [10]: > 100 µM (inactive)
- GI50 [11]: > 100 µM (inactive)
- GI50 [12]: > 100 µM (inactive)
- GI50 [13]: > 100 µM (inactive)
- GI50 [14]: > 100 µM (inactive)
- GI50 [15]: > 100 µM (inactive)
- GI50 [16]: > 100 µM (inactive)
- GI50 [17]: > 100 µM (inactive)
- GI50 [18]: > 100 µM (inactive)
- GI50 [19]: > 100 µM (inactive)
- GI50 [20]: > 100 µM (inactive)
- GI50 [21]: > 100 µM (inactive)
- GI50 [22]: > 100 µM (inactive)
- GI50 [23]: > 100 µM (inactive)
- GI50 [24]: > 100 µM (inactive)
- GI50 [25]: > 100 µM (inactive)
- GI50 [26]: > 100 µM (inactive)
- GI50 [27]: > 100 µM (inactive)
- GI50 [28]: > 100 µM (inactive)
- GI50 [29]: > 100 µM (inactive)
- GI50 [30]: > 100 µM (inactive)
- GI50 [31]: > 100 µM (inactive)
- GI50 [32]: > 100 µM (inactive)
- GI50 [33]: > 100 µM (inactive)
- GI50 [34]: > 100 µM (inactive)
- GI50 [35]: > 100 µM (inactive)
- GI50 [36]: > 100 µM (inactive)
- GI50 [37]: > 100 µM (inactive)
- GI50 [38]: > 100 µM (inactive)
- GI50 [39]: > 100 µM (inactive)
- GI50 [40]: > 100 µM (inactive)
- GI50 [41]: > 100 µM (inactive)
- GI50 [42]: > 100 µM (inactive)
- GI50 [43]: > 100 µM (inactive)
- GI50 [44]: > 100 µM (inactive)
- GI50 [45]: > 100 µM (inactive)
- GI50 [46]: > 100 µM (inactive)
- GI50 [47]: > 100 µM (inactive)
- GI50 [48]: > 100 µM (inactive)
- GI50 [49]: > 100 µM (inactive)
- GI50 [50]: > 100 µM (inactive)
- GI50 [51]: > 100 µM
- GI50 [52]: > 100 µM (inactive)
- GI50 [53]: > 100 µM (inactive)

Compound: O=C1CCc2ccc(O)c(c2)Oc2ccc(cc2)[C@@H]2O[C@@H]2CO1
- GI50 [1]: 59.8 µM (inactive)
- GI50 [2]: 17.8 µM (inactive)
- GI50 [3]: 38.4 µM (inactive)
- GI50 [4]: 38.1 µM (inactive)
- GI50 [5]: 22.2 µM (inactive)
- GI50 [6]: 56.8 µM (inactive)
- GI50 [7]: 25.6 µM (inactive)
- GI50 [54]: 55.8 µM (inactive)
- GI50 [8]: 23.9 µM (inactive)
- GI50 [9]: 23.7 µM (inactive)
- GI50 [10]: 49.2 µM (inactive)
- GI50 [11]: 67.8 µM (inactive)
- GI50 [12]: 89.3 µM (inactive)
- GI50 [13]: 98.9 µM (inactive)
- GI50 [14]: 24.6 µM (inactive)
- GI50 [15]: 62.4 µM (inactive)
- GI50 [16]: 37.9 µM (inactive)
- GI50 [17]: > 10 µM (inactive)
- GI50 [18]: 76 µM (inactive)
- GI50 [19]: 33.2 µM (inactive)
- GI50 [55]: 48.2 µM (inactive)
- GI50 [20]: 23.8 µM (inactive)
- GI50 [21]: 40.5 µM (inactive)
- GI50 [23]: 32.8 µM (inactive)
- GI50 [24]: 27 µM (inactive)
- GI50 [26]: 29.6 µM (inactive)
- GI50 [27]: 70.6 µM (inactive)
- GI50 [28]: 61.8 µM (inactive)
- GI50 [29]: 56.1 µM (inactive)
- GI50 [30]: 82.6 µM (inactive)
- GI50 [31]: 54.2 µM (inactive)
- GI50 [32]: 30.5 µM (inactive)
- GI50 [33]: 53.6 µM (inactive)
- GI50 [34]: 23.6 µM (inactive)
- GI50 [35]: 29 µM (inactive)
- GI50 [37]: 75.5 µM (inactive)
- GI50 [38]: 28.9 µM (inactive)
- GI50 [39]: 5.26 µM (inactive)
- GI50 [40]: 48.4 µM (inactive)
- GI50 [42]: 40.8 µM (inactive)
- GI50 [43]: 34 µM (inactive)
- GI50 [56]: > 100 µM (inactive)
- GI50 [44]: 41 µM (inactive)
- GI50 [45]: 73.5 µM (inactive)
- GI50 [46]: 72.8 µM (inactive)
- GI50 [47]: 88.5 µM (inactive)
- GI50 [48]: > 100 µM (inactive)
- GI50 [49]: 37.9 µM (inactive)
- GI50 [50]: > 100 µM (inactive)
- GI50 [57]: 30.1 µM (inactive)
- GI50 [52]: 20 µM (inactive)
- GI50 [53]: 41.6 µM (inactive)

Compound: COc1ccc(CC(N)=O)cc1OC
- GI50 [1]: > 1250 µM (inactive)
- GI50 [2]: > 1250 µM (inactive)
- GI50 [3]: > 1250 µM (inactive)
- GI50 [4]: > 1250 µM (inactive)
- GI50 [5]: > 1250 µM (inactive)
- GI50 [6]: > 1250 µM (inactive)
- GI50 [7]: 881 µM (inactive)
- GI50 [54]: > 1250 µM (inactive)
- GI50 [8]: > 1250 µM (inactive)
- GI50 [9]: 753 µM (inactive)
- GI50 [10]: > 1250 µM (inactive)
- GI50 [11]: > 1250 µM (inactive)
- GI50 [12]: > 1250 µM (inactive)
- GI50 [13]: > 1250 µM (inactive)
- GI50 [14]: > 1250 µM (inactive)
- GI50 [15]: > 1250 µM (inactive)
- GI50 [16]: 769 µM (inactive)
- GI50 [17]: > 1250 µM (inactive)
- GI50 [18]: > 1250 µM (inactive)
- GI50 [55]: > 1250 µM (inactive)
- GI50 [20]: > 1250 µM (inactive)
- GI50 [21]: > 1250 µM (inactive)
- GI50 [22]: > 1250 µM (inactive)
- GI50 [23]: > 1250 µM (inactive)
- GI50 [24]: > 1250 µM (inactive)
- GI50 [25]: > 1250 µM (inactive)
- GI50 [26]: 564 µM (inactive)
- GI50 [27]: > 1250 µM (inactive)
- GI50 [29]: > 1250 µM (inactive)
- GI50 [30]: > 1250 µM (inactive)
- GI50 [58]: > 1250 µM (inactive)
- GI50 [31]: > 853 µM (inactive)
- GI50 [32]: > 1250 µM (inactive)
- GI50 [33]: > 1250 µM (inactive)
- GI50 [34]: > 1250 µM (inactive)
- GI50 [35]: > 1250 µM (inactive)
- GI50 [36]: > 1250 µM (inactive)
- GI50 [37]: 198 µM (inactive)
- GI50 [38]: > 1250 µM (inactive)
- GI50 [39]: > 879 µM (inactive)
- GI50 [40]: 703 µM (inactive)
- GI50 [41]: > 1250 µM (inactive)
- GI50 [42]: > 1250 µM (inactive)
- GI50 [43]: > 1250 µM (inactive)
- GI50 [56]: > 1250 µM (inactive)
- GI50 [44]: > 1250 µM (inactive)
- GI50 [46]: > 1250 µM (inactive)
- GI50 [47]: > 1140 µM (inactive)
- GI50 [49]: > 1150 µM (inactive)
- GI50 [50]: > 818 µM (inactive)
- GI50 [51]: 1090 µM
- GI50 [59]: > 1250 µM (inactive)
- GI50 [52]: > 1250 µM (inactive)
- GI50 [60]: > 1250 µM (inactive)
